Marks after values point to notes of the source that are not given here.
Key:
[1] = target: T1, P-glycoprotein (HT-29 cells) (Homo sapiens, UniProt P08183); experiment: Rhodamine-123 accumulation assay in HT-29; format: cell-based; conditions: 50 µM, 24 h; versus untreated control
T1 construct: intracellular accumulation of rhodamine 123 (a fluorescent P-gp substrate analog) in P-gp-expressing cell lines (HT-29, LoVo, and LoVo/Dx); endogenous in cells; host or cells: HT-29, LoVo (ECACC via Sigma-Aldrich); LoVo/Dx (doxorubicin-selected subline of LoVo)
T1 sequence (P08183 whole entry): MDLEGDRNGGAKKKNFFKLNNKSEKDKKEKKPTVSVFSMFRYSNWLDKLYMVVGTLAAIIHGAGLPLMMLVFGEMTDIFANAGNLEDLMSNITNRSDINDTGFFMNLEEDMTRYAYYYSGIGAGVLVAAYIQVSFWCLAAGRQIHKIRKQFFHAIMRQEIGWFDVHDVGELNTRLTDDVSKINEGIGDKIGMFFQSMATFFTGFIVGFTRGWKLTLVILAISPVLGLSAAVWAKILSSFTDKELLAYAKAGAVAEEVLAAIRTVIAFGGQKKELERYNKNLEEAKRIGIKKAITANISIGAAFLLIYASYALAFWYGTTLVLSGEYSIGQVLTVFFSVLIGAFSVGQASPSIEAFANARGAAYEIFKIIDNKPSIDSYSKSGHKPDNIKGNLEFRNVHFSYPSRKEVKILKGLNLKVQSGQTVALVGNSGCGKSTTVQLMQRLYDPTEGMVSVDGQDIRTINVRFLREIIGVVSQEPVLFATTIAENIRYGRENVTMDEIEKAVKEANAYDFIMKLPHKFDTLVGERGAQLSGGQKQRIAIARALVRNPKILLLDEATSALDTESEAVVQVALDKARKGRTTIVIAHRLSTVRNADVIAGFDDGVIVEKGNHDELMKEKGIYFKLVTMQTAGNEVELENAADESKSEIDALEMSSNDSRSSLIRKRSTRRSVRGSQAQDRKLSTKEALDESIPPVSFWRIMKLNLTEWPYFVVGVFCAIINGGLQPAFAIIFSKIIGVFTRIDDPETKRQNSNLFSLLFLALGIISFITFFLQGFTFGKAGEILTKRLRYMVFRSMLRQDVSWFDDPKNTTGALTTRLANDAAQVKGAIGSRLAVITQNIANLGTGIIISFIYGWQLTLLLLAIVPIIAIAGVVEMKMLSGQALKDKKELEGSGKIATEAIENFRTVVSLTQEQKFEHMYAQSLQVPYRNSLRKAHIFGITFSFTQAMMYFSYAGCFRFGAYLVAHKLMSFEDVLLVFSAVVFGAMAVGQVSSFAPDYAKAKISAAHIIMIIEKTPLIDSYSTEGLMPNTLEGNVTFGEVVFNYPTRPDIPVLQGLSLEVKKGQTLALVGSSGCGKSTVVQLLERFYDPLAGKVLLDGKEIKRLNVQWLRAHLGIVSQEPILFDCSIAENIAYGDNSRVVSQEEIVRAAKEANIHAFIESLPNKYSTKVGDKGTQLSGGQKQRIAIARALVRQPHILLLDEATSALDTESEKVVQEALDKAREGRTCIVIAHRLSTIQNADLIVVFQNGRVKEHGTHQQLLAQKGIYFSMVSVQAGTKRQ
Source text: (§1) This test measured the intracellular accumulation of rhodamine 123 (a fluorescent P-gp substrate analog) in P-gp-expressing cell lines (HT-29, LoVo, and LoVo/Dx). Following accumulation and efflux phases, the fluorescence of rhodamine 123 (Rh-123) was quantified using spectrofluorimetry. The results are illustrated in Figure 3. Verapamil, a calcium channel blocker, served as a positive control for P-gp inhibition due to its well-established ability to inhibit P-gp activity. Verapamil binds to P-gp, inhibiting its function, which increases the intracellular concentration of chemotherapeutic drugs and other P-gp substrates.
(§2) The activity was measured for cells treated with a 50 µM concentration of the compounds and drugs in the recommended media for each cell line (without FBS) in a volume of 100 µL for 24 h. In this test, verapamil served as the control. After the incubation period, a 10 mM Rhodamine-123 (Rh-123) solution was prepared in a 1:1 DMSO mixture. […] Fluorescence was measured at 485 nm excitation and 538 nm emission using a Biotek Synergy H1 microplate reader (Agilent Technologies, Inc., Santa Clara, CA, USA). […]
(§3) Results are expressed as the mean ± SD (standard deviation) relative to the respective control (E/E0), where E represents the mean result for the measured sample, and E0 represents the mean result for the control. […]

LoVo cells = experiment: MTT viability assay, colorectal cancer cells LoVo; format: cell-based, human; conditions: for SI, LoVo: CC50 CCD 841 CoTr / CC50 LoVo
Description: (§4) The cytotoxic effects of ten newly synthesized N-Mannich bases were assessed on the normal human intestinal epithelium (CCD 841 CoTr) and cancer cell lines: gastric cancer (EPG) and four colorectal cancer lines (Caco-2, LoVo, LoVo/Dx, and HT-29). Cell viability was evaluated using the MTT assay in accordance with Annex C of ISO 10993-5 [33].
(§5) The biological activity of the newly synthesized compounds was assessed in the context of anticancer activity. For this purpose, several gastrointestinal cancer lines were selected: gastric cancer (EPG 257, which belongs to the collection of the Laboratory of Cell Culture and Advanced Therapy at the University of Environmental and Life Sciences in Wrocław), and four colorectal cancer cell lines (LoVo, Caco-2, and HT-29) were obtained from the European Collection of Authenticated Cell Cultures (ECACC) and were delivered by Sigma-Aldrich, a certified distributor for the biobank. Additionally, LoVo cells were used to develop a doxorubicin-resistant subline, referred to as LoVo/Dx. Resistance was induced through gradual adaptation to increasing concentrations of doxorubicin, starting from 0.1 µg/mL and incrementally raised to 0.8 µg/mL. After reaching the maximum concentration, the cells were maintained in a medium containing 0.4 µg/mL doxorubicin for a period of three months to stabilize the resistant phenotype. […] The resulting LoVo/Dx subline, resistant to doxorubicin, was cultured in DMEM/F-12 medium and utilized in assays evaluating the effectiveness of novel compounds against multidrug-resistant cancer cells. […] The non-cancerous cell control was normal colonic epithelial cells (CCD 841 CoTr from American Type Culture Collection, (ATCC, Manassas, VA, USA)). Cell cultures were performed under standard conditions (5% CO2, 95% humidity, and 37 °C). Each cell line was cultured in the recommended medium: (1) HT-29 in McCoy’s 5a, (2) Caco-2 in Minimal Essential Medium (MEM, Biological Industries, Beit Haemek, Israel), (3) CCD 841 CoTr in Dulbecco’s Modified Eagle Medium (DMEM, Biological Industries, Beit Haemek, Israel), (4) LoVo in Dulbecco’s Modified Eagle Medium/F-12 (DMEM/F-12; Biological Industries, Beit Haemek, Israel), (5) LoVo/Dx in DMEM/F-12, and (6) EPG in DMEM. Culture media were supplemented with 10% fetal bovine serum (FBS, Sigma-Aldrich, Darmstadt, Germany) and antibiotics (penicillin and streptomycin; Sigma-Aldrich, Darmstadt, Germany). For assays, trypsinized (TrypLE solution, Thermo Fisher Scientific, Waltham, MA, USA) cells were seeded at appropriate densities of 10,000 cells per well for MTT and determination of apoptotic and necrotic cell numbers; 30,000 cells per well for the rhodamine accumulation assay; and 500,000 cells per well for ELISA tests.
(§6) The cytotoxicity of the compounds and drugs used as controls was assessed using the MTT assay. The assay also included a DMSO control. After seeding and allowing the cells to adhere overnight, they were treated with the tested compounds and drugs for another 24 h. After this time, the supernatant was removed, and a 1 mg/mL MTT solution was added for 2 h in 5% CO2, 95% humidity, at 37 °C. The supernatant was then removed, and isopropanol was added to dissolve the purple crystals over 30 min by shaking. Absorbance was measured at 570 nm in a Multiskan GO microplate reader (Thermo Fisher Scientific; Waltham, MA, USA). All reagents used for the assays were purchased from Sigma-Aldrich, Darmstadt, Germany.
(§7) Biological assays were performed in three independent replicates, each involving four samples. ELISA determinations were repeated three times.

EPG cells = experiment: MTT viability assay, gastric cancer cells; format: cell-based, human; conditions: for SI, EPG: CC50 CCD 841 CoTr / CC50 EPG; for CC50: Homo sapiens, MTT, 24 h, read-out: CC50 ± SD, EPG
Description: as §4, §5, §6, §7

[2] = target: T2, P-glycoprotein (LoVo/Dx cells) (Homo sapiens, UniProt P08183); experiment: Rhodamine-123 accumulation assay in LoVo/Dx; format: cell-based; conditions: 50 µM, 24 h; versus untreated control
T2 construct: intracellular accumulation of rhodamine 123 (a fluorescent P-gp substrate analog) in P-gp-expressing cell lines (HT-29, LoVo, and LoVo/Dx); endogenous in cells; host or cells: HT-29, LoVo (ECACC via Sigma-Aldrich); LoVo/Dx (doxorubicin-selected subline of LoVo)
T2 sequence (P08183 whole entry): as above
Source text: as §1, §2, §3

[3] = target: T3, P-glycoprotein (LoVo cells) (Homo sapiens, UniProt P08183); experiment: Rhodamine-123 accumulation assay in LoVo; format: cell-based; conditions: 50 µM, 24 h; versus untreated control
T3 construct: intracellular accumulation of rhodamine 123 (a fluorescent P-gp substrate analog) in P-gp-expressing cell lines (HT-29, LoVo, and LoVo/Dx); endogenous in cells; host or cells: HT-29, LoVo (ECACC via Sigma-Aldrich); LoVo/Dx (doxorubicin-selected subline of LoVo)
T3 sequence (P08183 whole entry): as above
Source text: as §1, §2, §3

LoVo/Dx cells = experiment: MTT viability assay, doxorubicin-resistant LoVo/Dx; format: cell-based, human; conditions: for SI, LoVo/Dx: CC50 CCD 841 CoTr / CC50 LoVo/Dx; for CC50: Homo sapiens, LoVo/DX, MTT, 24 h, read-out: CC50 ± SD, LoVo/Dx
Description: as §4, §5, §6, §7

| Increase of Rh-123 accumulation, HT-29 [1] | Increase of Rh-123 accumulation, LoVo/Dx [2] | Increase of Rh-123 accumulation, LoVo [3] | SMILES | SI, LoVo (LoVo cells) | CC50 ± SD, LoVo (LoVo cells; MTT, 24 h, Non-toxic = no toxicity in tested range 1–500 μM) | SI, EPG (EPG cells) | CC50 (EPG cells) | SI, LoVo/Dx (LoVo/Dx cells) | CC50 (LoVo/Dx cells) | CC50 (LoVo cells; Homo sapiens, LoVo, MTT, 24 h, Non-toxic = no toxicity in tested range 1–500 μM, read-out: CC50 ± SD, LoVo) |
| --- | --- | --- | --- | --- | --- | --- | --- | --- | --- | --- |
| 1.23 fold | 4.2 fold | 2.8 fold | Cc1cc(C)c(C(=O)NCc2nn(CN3CCN(c4cccc(Cl)c4)CC3)c(=S)n2-c2ccccc2)c(S)n1 [Compound 5, 4,6-dimethyl-N-[(4-phenyl-5-thioxo-2-{[4-(3-chlorophenyl)piperazinyl]methyl}-4,5-dihydro-1H-1,2,4-triazol-3-yl)methyl]-2-sulfanylpyridine-3-carboxamide] | >>1 ^c | Non-toxic ^b | 2.66 | 83 ± 4.6 µM | 1.20 | 184 ± 2.7 µM |  |
| 1.46 fold | 3.5 fold | 2.55 fold | Cc1ccc(N2CCN(Cn3nc(CNC(=O)c4c(C)cc(C)nc4S)n(-c4ccccc4)c3=S)CC2)cc1 [Compound 6] | 2.37 |  | 6.72 | 57.7 ± 5.4 µM | 1.99 | 195 ± 5.7 µM | 163 ± 4.6 µM |
